Assay results published in ChEMBL document CHEMBL5143653, “4'-Nitrobiphenyl thioglucoside as the Smallest, fluorescent photosensitizer with cancer targeting ligand” (Bioorg Med Chem, 2022).

Experiments:
[1] = Drug uptake in human PC-3 cells at 150 uM incubated under irradiation at 405 nm in presence of up top 25 mM glucose by confocal laser scan fluorescence microscopy; format: ADME, cell-based; details: pc-3, 150 µM
[2] = system: PC-3; assay: Dark toxicity in human PC-3 cells assessed as reduction in cell viability at 300 uM incubated under dark for 2 hrs by MTT assay; format: cell-based; details: pc-3, 2 h
[3] = Drug uptake in human PC-3 cells at 150 uM incubated under irradiation at 405 nm by confocal laser scan fluorescence microscopy; format: ADME, cell-based; details: pc-3, 150 µM
[4] = Drug uptake in human PC-3 cells at 150 uM incubated under irradiation at 405 nm in presence of cytochalasin B by confocal laser scan fluorescence microscopy; format: ADME, cell-based; details: pc-3, 150 µM
[5] = Photodynamic cytotoxicity in human PC-3 cells assessed as reduction in cell viability under 405 nm irradiation exposure measured after 2 hrs by MTT assay; format: toxicity, cell-based
[6] = system: PC-3; assay: Dark toxicity in human PC-3 cells assessed as reduction in cell viability at 150 uM incubated under dark for 2 hrs by MTT assay; format: cell-based; details: pc-3, 2 h

Row | Structure (SMILES) | Drug uptake [1] | Activity [2] | Drug uptake [3] | Drug uptake [4] | IC50 at 2 h [5] [µM] | Activity [6]
1 | O=[N+]([O-])c1ccc(-c2ccc(S[C@@H]3O[C@H](CO)[C@H](O)[C@H](O)[C@H]3O)cc2)cc1 | Active | Toxic | Active | Active | 120 | 
2 | O=[N+]([O-])c1ccc(-c2ccc(OCCCO[C@@H]3O[C@H](CO)[C@@H](O)[C@H](O)[C@H]3O)cc2)cc1 |  |  |  |  |  | Toxic
3 | O=[N+]([O-])c1ccc(-c2ccc(OCCCS[C@@H]3O[C@H](CO)[C@@H](O)[C@H](O)[C@H]3O)cc2)cc1 |  |  |  |  |  | Toxic
4 | O=[N+]([O-])c1ccc(-c2ccc(S[C@H]3O[C@H](CO)[C@@H](O)[C@H](O)[C@@H]3O)cc2)cc1 |  | Toxic | Active |  | 150 | 
5 | O=[N+]([O-])c1ccc(-c2ccc(O[C@@H]3O[C@H](CO)[C@@H](O)[C@H](O)[C@H]3O)cc2)cc1 |  |  |  |  |  | Non-Toxic
6 | O=[N+]([O-])c1ccc(-c2ccc(S[C@@H]3O[C@H](CO)[C@@H](O)[C@H](O)[C@H]3O)cc2)cc1 |  | Non-Toxic | Active |  | 250 | Non-Toxic
7 | O=[N+]([O-])c1ccc(-c2ccc(SCCCO[C@@H]3O[C@H](CO)[C@@H](O)[C@H](O)[C@H]3O)cc2)cc1 |  |  |  |  |  | Toxic
